Assay results from patent US4386103A, “Dichloroamino acid derivatives useful as potent germicidal and fungicidal agents” (Merck & Co., Inc., priority 1981, dated 1983).

Experiment: Stability in Triacetin (preliminary formulation studies)
Assay type: physicochemical
Details: 60° C., two months
Source text: Triacetin is the triacetate of glycerin; it is a viscous liquid with high water solubility and very low toxicity. […] Of course other aprotic polar solvents can be used as well.

decomposition in esters of polyalcohols such as Triacetin: no decomposition
Structure (SMILES): CC(C)(COC(=O)CCC(=O)O)N(Cl)Cl [(IV), 2-Dichloroamino-2-methylpropylhemisuccinate]
